The source of these data is patent US5573748A, “Radiolabeled technetium chelates for use in renal function determinations” (University of Utah Research Foundation, priority 1994, dated 1996).

For data set [1] the following is noted: cited from earlier work.
Data set [2] in a line: Renal excretion in humans (normal volunteers). The data set is classed as in vivo. The procedure: The renal excretion of Tc-99m-MAGGG in humans was obtained based upon experiments on normal volunteers. For purposes of comparison, tests were also conducted using I-131 OIH either immediately before or after the study using Tc-99m-MAGGG.
In Example 6, the Tc-99m-MAGGG used was prepared with stannous reduction similar to the procedure set forth in Example 2, with glucoheptonate being used as an intermediate exchange ligand. In Example 7, dithionite was used as a reducing agent instead of using stannous reduction. Both examples provided Tc-99m-MAGGG having the same major peak on a HPLC column.
In both examples, the subject was injected with a dosage containing about 15 millicuries of Tc-99m-MAGGG. The comparative tests utilizing I-131 OIH involved administration of about 300 microcuries of I-131 OIH. In both instances, imaging of the kidneys ureters, and blood pool was conducted for a period of about 30 minutes, following which the count rate in the bladder was measured.
Thereafter, the bladder was voided, and an additional image was taken to detect the presence of residual radioactivity in order to allow determination of the percent of urine radioactivity at 30 minutes. Measurements were also taken at 3 hours.

Data set [3] can be described thus: Biodistribution in normal mice after intravenous injection (renal uptake). The data set is classed as in vivo. The protocol: Tc-99m-MAGGG was administered simultaneously with I-131 OIH (as a reference standard) to six mice in two groups. Each mouse was injected intravenously with 0.1 milliliters of a preparation containing 0.5 microcuries of Tc-99m-MAGGG and 0.2 microcuries of I-131 OIH, and then placed into a metabolic cage capable of collecting excreted urine.
Ten minutes after injection, each mouse's urethra was ligated and the mouse was sacrificed by chloroform vapor; various samples were then taken to determine biodistribution of radiolabeled material. The results of these samples are shown in Table I. Similar measurements, shown in Table II, were taken on the second group of mice 120 minutes after injection.

Data set [4] is described as follows: Biodistribution in probenicid-treated mice (inhibited renal tubular transport). The data set is classed as in vivo. The following applies: probenicid-treated mice (50 mg/kg), 10 minutes after injection. The procedure: In order to test the biodistribution of Tc-99m-MAGGG in mice having inhibited renal tubular transport, six mice were injected with a solution of probenicid at the rate of 50 milligrams of probenicid per kilogram of body weight. Ten minutes later, each mouse was injected with 0.1 milliliters of a solution containing 0.5 microcuries of Tc-99m-MAGGG and 0.2 microcuries of I-131 OIH. After an additional ten minutes, each mouse was sacrificed and various samples taken to determine biodistribution of radiolabeled material.

On to `O=C(O)CNC(=O)c1ccccc1[131I]` [I-131 OIH, I-131 ortho-iodohippurate, reference compound], for which, in data set [1] (in vivo), the renal extraction efficiency is listed as 65%-80. Moreover, the “urine radioactivity (renal excretion)” value in data set [2] (30 minutes) is 65.5 ± 6.3 percentage of radioactive agen. The “urine radioactivity (renal excretion)” value in data set [2] (3 hours) was 93.5 ± 3.2 percentage of radioactive agen. For the same molecule, in data set [3] (10 minutes after injection), the Blood was 4.1 percentage of radioactive agen, the Intestine is recorded as 1.0 percentage of radioactive agen, the Kidneys is given as 2.2 percentage of radioactive agen and the Liver was 1.8 percentage of radioactive agen. Also, in data set [3] (10 minutes after injection), the Stomach is 0.5 percentage of radioactive agen and the Urine is 74.4 percentage of radioactive agen. In data set [3] (120 minutes after injection), the Blood was 0.14 percentage of radioactive agen, the Intestine was 0.16 percentage of radioactive agen, the Kidneys was 0.06 percentage of radioactive agen and the Liver is recorded as 0.11 percentage of radioactive agen. Further, in data set [3] (120 minutes after injection), the Stomach is 0.98 percentage of radioactive agen and the Urine is 96.0 percentage of radioactive agen. Besides, in data set [4], the Blood is 7.0 percentage of radioactive agen, the Intestine was 2.0 percentage of radioactive agen, the Kidneys was 3.6 percentage of radioactive agen and the Liver is listed as 3.7 percentage of radioactive agen. Also, in data set [4], the Stomach is 0.75 percentage of radioactive agen and the Urine is 59.2 percentage of radioactive agen.

In the case of `Nc1ccc(C(=O)NCC(=O)O)cc1` [PAH, para-aminohippuric acid], in data set [1] (in vivo), the “fraction in the blood removed by the kidneys” value is reported as around 90% and the “fraction removed from the plasma by active secretion into the tubules” value is on record as around 70%.

For the molecule “Tc-99m diethylenetriaminepentaacetic acid [Tc-99m-DTPA]”, the maximum extraction efficiency in data set [1] (glomerular filtration only) is 20-25%.

Consider “Tc-99m-N,N'-bis(mercaptoacetyl)-2,3-diaminopropanoate [Tc-99m-CO2 -DADS-A]”, for which the “excreted less effectively than I-131 OIH” value in data set [1] (in vivo) is around 20%.

With “Tc-99m-N,N'-bis(mercaptoacetyl)-2,3-diaminopropanoate [Tc-99m-CO2 -DADS-B]”, the “removal by the kidneys compared with Tc-99m-CO2-DADS-A isomer” value in data set [1] (in vivo) was “far less efficiently removed by the kidneys”.

Turning to “Tc-99m-mercapoacetylglycylglycylalanine [Tc-99m-MAGG-Alanine]”, in data set [3] (10 minutes), the “level in the urine relative to corresponding level of I-131 OIH” value stood at 106.4%. Further, in data set [3] (10 minutes after injection), the Blood is listed as 2.6 percentage of radioactive agen, the Intestine was 1.6 percentage of radioactive agen, the Kidneys is 5.2 percentage of radioactive agen and the Liver is given as 2.6 percentage of radioactive agen. Besides, in data set [3] (10 minutes after injection), the Stomach entry is “.2 percentage of radioactive agen” and the Urine was 75.1 percentage of radioactive agen. In addition, in data set [3] (120 minutes), the “level in the urine relative to corresponding level of I-131 OIH” value is on record as 102.2%. In addition, in data set [3] (120 minutes after injection), the Blood entry is on record as “.2 percentage of radioactive agen”, the Intestine was 2.2 percentage of radioactive agen, the Kidneys result is “.3 percentage of radioactive agen” and the Liver entry is recorded as “.1 percentage of radioactive agen”. In data set [3] (120 minutes after injection), the Stomach result is recorded as “.2 percentage of radioactive agen” and the Urine was 96.0 percentage of radioactive agen.

As for “Tc-99m-mercaptoacetylglycylglycylglycine [Tc-99m-MAGGG]”, the “urine radioactivity (renal excretion)” value in data set [2] (30 minutes) is on record as 71.8 ± 4.2 percentage of radioactive agen. Moreover, the “urine radioactivity (renal excretion)” value in data set [2] (3 hours) is recorded as 98.6 ± 1.6 percentage of radioactive agen. Also, the “level in the urine relative to corresponding level of I-131 OIH” value in data set [3] (10 minutes) stood at 107.3%. In data set [3] (10 minutes after injection), the Blood is 2.6 percentage of radioactive agen, the Intestine is reported as 1.1 percentage of radioactive agen, the Kidneys was 3.5 percentage of radioactive agen and the Liver is 2.9 percentage of radioactive agen. Also, in data set [3] (10 minutes after injection), the Stomach is reported as 0.1 percentage of radioactive agen and the Urine was 79.9 percentage of radioactive agen. For the same molecule, the “level in the urine relative to corresponding level of I-131 OIH” value in data set [3] (120 minutes) came to 102.6%. In data set [3] (120 minutes after injection), the Blood is 0.03 percentage of radioactive agen, the Intestine is 1.2 percentage of radioactive agen, the Kidneys is reported as 0.06 percentage of radioactive agen and the Liver is reported as 0.08 percentage of radioactive agen. Moreover, in data set [3] (120 minutes after injection), the Stomach is 0.02 percentage of radioactive agen and the Urine is listed as 98.5 percentage of radioactive agen. In addition, in data set [4], the Blood was 6.0 percentage of radioactive agen, the Intestine is listed as 1.6 percentage of radioactive agen, the Kidneys is recorded as 5.4 percentage of radioactive agen and the Liver is given as 5.9 percentage of radioactive agen. Besides, in data set [4], the Stomach is recorded as 0.24 percentage of radioactive agen and the Urine was 64.7 percentage of radioactive agen.

On to “Tc-99m-mercaptoacetylglycylglycylglycylglycine [Tc-99m-MAGGGG]”, for which, in data set [3] (10 minutes), the “level in the urine relative to corresponding level of I-131 OIH” value is on record as 86.7%. In data set [3] (10 minutes after injection), the Blood is reported as 2.7 percentage of radioactive agen, the Intestine is reported as 10.3 percentage of radioactive agen, the Kidneys is 3.3 percentage of radioactive agen and the Liver was 9.9 percentage of radioactive agen. Besides, in data set [3] (10 minutes after injection), the Stomach entry is “.2 percentage of radioactive agen” and the Urine is listed as 58.4 percentage of radioactive agen. Further, in data set [3] (120 minutes), the “level in the urine relative to corresponding level of I-131 OIH” value was determined as 87.6%. Besides, in data set [3] (120 minutes after injection), the Blood result is listed as “.04 percentage of radioactive agen”, the Intestine is reported as 16.0 percentage of radioactive agen, the Kidneys result is reported as “.2 percentage of radioactive agen” and the Liver is 1.1 percentage of radioactive agen. Also, in data set [3] (120 minutes after injection), the Stomach result is “.05 percentage of radioactive agen” and the Urine is reported as 82.5 percentage of radioactive agen.
